Laboratory results taken from patent US20080206738A1, “Compositions and methods for modulating S-nitrosoglutathione reductase” (Duke University, priority 2003, published 2008).

Tests used:
GRK2 [1] = molecular target: T1, GRK2 (Homo sapiens, UniProt P25098); assay: GRK2-mediated phosphorylation of rhodopsin from purified bovine rod outer segments; format: biochemical; details: cysNO 5, 50, 500 μM, light stimulated
T1 sequence (P25098 1-689): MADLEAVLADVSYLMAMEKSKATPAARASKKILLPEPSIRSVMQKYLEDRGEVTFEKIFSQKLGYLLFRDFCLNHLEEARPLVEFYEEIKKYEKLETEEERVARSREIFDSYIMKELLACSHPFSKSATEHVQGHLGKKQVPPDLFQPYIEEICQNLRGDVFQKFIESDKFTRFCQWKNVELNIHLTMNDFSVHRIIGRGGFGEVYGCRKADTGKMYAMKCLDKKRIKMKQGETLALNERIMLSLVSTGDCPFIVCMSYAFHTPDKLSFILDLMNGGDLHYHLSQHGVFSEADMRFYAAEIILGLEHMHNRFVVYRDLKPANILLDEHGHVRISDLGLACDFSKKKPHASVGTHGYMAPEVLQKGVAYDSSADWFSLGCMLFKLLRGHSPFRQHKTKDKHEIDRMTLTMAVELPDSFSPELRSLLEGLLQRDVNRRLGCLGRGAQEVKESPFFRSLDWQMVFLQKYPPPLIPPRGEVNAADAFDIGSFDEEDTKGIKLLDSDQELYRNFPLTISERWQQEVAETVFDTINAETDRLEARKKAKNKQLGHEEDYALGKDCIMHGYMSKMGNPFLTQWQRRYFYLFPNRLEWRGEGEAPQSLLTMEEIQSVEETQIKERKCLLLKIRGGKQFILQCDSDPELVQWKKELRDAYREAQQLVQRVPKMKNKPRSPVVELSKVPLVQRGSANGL
Protocol: (§1) FIGS. 11A-11B. Results from GRK studies. FIG. 11A. Representative gel from experiments examining the effect of cysNO (500, 50, and 5 μM) on isoproterenol (10 μM) stimulated GRK2 mediated receptor phosphorylation using purified β2-AR reconstituted in synthetic vesicles and purified GRK2. FIG. 11B: Representative gel from experiments examining the effect of cysNO (5, 50, and 500 μM) light stimulated GRK2 mediated phosphorylation of rhodopsin using purified bovine rod outer segments and purified GRK2.
(§2) Previous data provided strong evidence supporting the hypothesis that NO prevented GRK (G protein-coupled receptor kinase)-mediated phosphorylation of the β2-AR (adrenergic receptor). Further experiments were required to determine whether NO was acting directly on the receptor or the GRKs. To elucidate the site of NO action, its effect was tested on GRK2-mediated phosphorylation of the β2-AR and on a soluble peptide substrate using purified proteins in a reconstituted system.

GRK2 [2] = molecular target: T1, GRK2; assay: GRK2-mediated phosphorylation of purified β2-AR in a reconstituted system; format: biochemical; details: cysNO 500, 50, 5 μM; isoproterenol (10 μM) stimulated; β2-AR reconstituted in synthetic vesicles
Protocol: as §1, §2

GRK2 [3] = molecular target: T1, GRK2; assay: Purified GRK2-mediated in vitro phosphorylation of a soluble peptide substrate (RRREEEEESAAA); format: biochemical; details: 500, 50, and 5 μM; n=2; P<0.05
Protocol: FIGS. 12A-12B: Effect of cysNO (A: 500, 50, and 5 μM) and GSNO (B: 500, 50, and 5 μM) on purified GRK2 mediated in vitro phosphorylation of a soluble peptide substrate (RRREEEEESAAA; SEQ ID NO:30) (n=2; *P<0.05).
To confirm this, experiments were performed to examine the capacity of SNOs to inhibit purified GRK2-mediated phosphorylation of a synthetic peptide substrate (RRREEEEESAAA; SEQ ID NO:30).

cardiac β-ARs = assay: Chronic isoproterenol-induced cardiac hypertrophy and β-AR down-regulation in mice (mini-osmotic pump); format: in vivo, mouse
Protocol: FIGS. 13A-13C: Results of Cardiac Studies. FIG. 13A: Heart weight to body weight ratio (hw:bw, mg:g) (n=10); FIG. 13B: Cardiac β-AR density (BMax, fmol/mg protein (n=5); FIG. 13C: Cardiac PARK protein expression levels (n=4), in mice following mini-osmotic pump implantation and treatment for 7 days with either PBS, isoproterenol (ISO) (30 mg/kg/day), GSNO (10 mg/kg/day) or a combination of ISO and GSNO. All data expressed as mean (+/−SEM) (*P<0.05 versus PBS treated mice, +P<0.05 versus ISO treated mice, unpaired t test).
One well established model of experimental cardiac hypertrophy in the mouse involves the chronic administration of the β-AR agonist, isoproterenol. This treatment leads to a functional uncoupling and down-regulation of cardiac β-ARs and the development of a significant increase in wall mass. Experiments were performed to study the effects of GSNO on the development of cardiac hypertrophy and its ability to alter the pattern of β-AR down-regulation associated with chronic isoproterenol stimulation.
Whole cell and membrane receptor/ligand binding was performed to assess functional affinity of receptor for ligand and overall receptor density as described previously. In particular, whole cell and membrane binding was assessed for cells treated with multiple concentrations of NO/SNO in the presence and absence of desensitizing conditions (agonist pre-stimulation).
In contrast, the combined infusion of GSNO with ISO maintained P receptor density (FIG. 13B) because it inhibits PARK (GRK2) (FIGS. 12A-12B). Therefore, inhibitors of GSNOR alone or in combination with β-agonists could be used to improve heart failure, or other vascular disorders such as hypertension and asthma.

[4] = test system: animal models of endotoxic shock; details: literature (Feihl et al., 2001; Ou et al., 1997); cited from earlier work
[5] = test system: LPS-challenged GSNOR−/− mice; assay: iNOS inhibition with 1400 W in LPS-challenged GSNOR−/− mice (endotoxic shock); format: in vivo, mouse
Source text: Blood was obtained by cardiac puncture after animals were euthanized by CO2 inhalation. The following serum chemistries were quantified by Antech Diagnostics (Farmingdale, N.Y.): alanine aminotransferase (ALT), aspartate aminotransferase (AST), creatine phosphokinase (CPK), urea nitrogen (BUN), creatinine, amylase, lipase, lactate dehydrogenase, alkaline phosphatase, total protein, globulin, albumin, calcium, magnesium, sodium, potassium, chloride, phosphorus, glucose, bilirubin, cholesterol, triglycerides, and osmolality.
Serum nitrate and nitrite were measured by capillary electrophoresis (CE) (Zunic et al., 1999) with a P/ACE MDQ system (Beckman) and by chemiluminescence (Sievers NO Analyzer). For CE, sera were diluted (1:10) with water and filtered through a 5 kDa cut-off membrane. Electrophoresis of the filtered samples and of nitrate and nitrite standards was carried out in a neutral capillary with Tris buffer (100 mM, pH 8.0), and monitored by absorbance at 214 nm. Nitrite concentrations are higher when measured by CE than by chemiluminescence (Zunic et al., 1999), but no relative differences between CE and chemiluminescence were observed.
LPS (E. coli, serotype 026:B6, Sigma) at a dosage of 150,000 endotoxin units/g (EU/g) was injected intraperitoneally into C57BL/6 and GSNOR^−/− mice. The mice were matched for age (11-12 weeks old), gender, and weight. LPS used for the males was lot number 050K4117 (15 million EU/mg) and LPS used for the females was lot number 101K4080 (3 million EU/mg). Studies were done in 45 additional male mice (22 wild-type and 23 GSNOR^−/−) administered lot number 101K4080. […] Phosphate-buffered saline (PBS, 20 μl/g) was injected in controls. In additional sets of experiments, LPS-challenged GSNOR^−/− mice were injected subcutaneously with the iNOS inhibitor 1400 W (1 μg/g, Cayman) or PBS (10 μl/g). Injections were performed at 6, 24 and 30 hours after LPS, or at 24, 42 and 48 hours after LPS.
Liver homogenates were prepared in lysis buffer (20 mM Tris-HCl, pH 8.0, 0.5 mM EDTA, 100 μM diethylenetriamine pentaacetic acid, 0.1% NP-40 and 1 mM phenylmethylsulfonyl fluoride). SNO levels in the total lysate and in a fraction filtered through a 5 kDa cut-off ultrafiltration membrane (low-mass SNO) were measured by photolysis-chemiluminescence (Liu et al., 2000b) and normalized for protein content.
Survival data on day 6 after LPS treatment were analyzed by both the χ^2 test and the Fisher exact test of contingency tables, with similar results. Blood pressure, SNO levels and serum chemistries were analyzed with the Student's t-test or with the nonparametric Mann-Whitney test.
Additional experiments were performed to establish the contribution of nitrosative stress to the pathogenesis of endotoxic shock. LPS-challenged GSNOR^−/− mice were treated with 1400 W, a selective iNOS inhibitor. Administration of 1400 W, initiated 6 h following LPS injection, reduced serum nitrate (i.e., NOS activity) by about 50% (FIG. 7A, P=0.015) and liver injury by about 90% (FIG. 7C, P=0.020). This improvement coincided with a reduction of liver SNO by about 90% (FIG. 7B). […] By comparison, PBS (volume control) had little effect (FIG. 7D vs. FIG. 3D). When administration of 1400 W was delayed for 24 h following LPS injection, this allowed SNOs to accumulate to hazardous levels, and the protection conferred by NOS inhibition was lost (3 out of 5 female GSNOR^−/− mice died).

[6] = ISO infused for 7 days using a pump (30 mg/kg/day)
[7] = administration of 1400 W delayed for 24 h following LPS injection
[8] = GSNO 10 mg/kg/day via osmotic mini-pump with ISO 30 mg/kg/day

## N[C@@H](CSN=O)C(=O)O [cysNO]
GRK2 [1]
  GRK2-mediated phosphorylation of rhodopsin: significantly decreased
GRK2 [2]
  GRK2-mediated phosphorylation of the purified β2-AR: significantly decreased
GRK2 [3]
  GRK2 mediated phosphorylation of the synthetic peptide substrate: significantly inhibited

## CC(C)NCC(O)c1ccc(O)c(O)c1 (stereo not shown) [isoproterenol]
Cardiac β-ARs; [6]
  cardiac weight: increases
  β adrenergic receptor levels: decreased
  βARK (GRK2) expression: increased

## CC(=N)NCc1cccc(CN)c1 [1400 W, N-[3-(aminomethyl)benzyl]acetamidine]
[4]
  effect on injury in animal models of endotoxic shock: either have little effect or worsen injury
[5]; 1400 W initiated 6 h following LPS injection, P=0.03
  survival rate of LPS-challenged GSNOR−/− mice: significantly improved
[5]; GSNOR−/− mice, 1400 W 1 μg/g s.c. initiated 6 h following LPS injection, P=0.015
  reduction of serum nitrate (i.e., NOS activity): about 50%
[5]; GSNOR−/− mice, 1400 W initiated 6 h following LPS injection
  reduction of liver SNO: about 90%
[5]; GSNOR−/− mice, 1400 W initiated 6 h following LPS injection, P=0.020
  reduction of liver injury (serum ALT): about 90%
[5]; GSNOR−/− mice, 48 h after LPS treatment, 1400 W initiated 6 h following LPS
  tissue injury in kidney, pancreas, and muscle (serum markers): reduced
[5]; [7]
  female GSNOR−/− mice that died: 3 out of 5
  protection conferred by NOS inhibition: lost

## CC(=N)NCCCC[C@H](N)C(=O)O [N-(1-iminoethyl)-L-lysine, N6-(1-Iminoethyl)-L-lysine]
[4]
  effect on injury in animal models of endotoxic shock: either have little effect or worsen injury

## N[C@@H](CCC(=O)N[C@@H](CSN=O)C(=O)NCC(=O)O)C(=O)O [GSNO, S-nitrosoglutathione]
Cardiac β-ARs; [8]
  isoproterenol-stimulated changes in heart weight to body weight ratio: no effect
  β-AR down-regulation: significantly decreased
Cardiac β-ARs; combined infusion of GSNO with ISO
  β receptor density: maintained
GRK2 [3]
  GRK2 mediated phosphorylation of the synthetic peptide substrate: significantly inhibited
